Assay results published in patent US20260184733A1, “CRYSTAL FORM OF NEUROKININ-1 ANTAGONIST PRODRUG COMPOUND” (JIANGSU HENGRUI PHARMACEUTICALS CO., LTD., priority 2022, published 2026).

Experiments:
Type in all cases: physicochemical
[1] = Solvent residue of the crystal forms determined by gas chromatography
Method: The solvent residue of the crystal form of the compound represented by formula I was determined by gas chromatography, as shown in the table below.

[2] = Crystal form conversion on stirring in ethyl acetate at room temperature; settings: 1.0 g in 1.5 mL ethyl acetate, stirred at room temperature, filtered, dried under vacuum
Method: 1.0 g of the crystal form I of the compound represented by formula I was added to 1.5 mL of ethyl acetate, and the mixture was stirred at room temperature, filtered, and dried under vacuum.
1.0 g of the crystal form III of the compound represented by formula I was added to 1.5 mL of ethyl acetate, and the mixture was stirred at room temperature, filtered, and dried under vacuum.

[3] = Dissolution of the raw material in 50% tert-butanol solution when preparing the lyophilized composition; settings: 4.36% (w/v) in 50% tert-butanol with 5% mannitol, stirred at room temperature
Method: Tert-butanol and water were mixed at a volume ratio of 1:1 to form a 50% tert-butanol solution. 90% of the target volume of the solution was taken, and 5% (mass volume percentage) of mannitol and 4.36% of the raw material of the compound represented by formula I were added. The mixture was stirred at room temperature for dissolution (dissolution being considered as the absence of significant blocky or flocculent insoluble substances in the solution). The pH was adjusted to 5 with dilute hydrochloric acid or sodium hydroxide, filtration was performed with a […] organic filtration membrane to obtain a clear solution, and the volume of the clear solution was made constant with 50% tert-butanol. The above-mentioned solution was stored at 4° C. before subpackaging. After subpackaging according to the target volume, half of a stopper was pressed, and a freeze-drying procedure was run. After the completion of the procedure, nitrogen was filled, the remaining stopper was pressed, and the freeze-dried compounds were taken out of the box.

Solvent residue: 1,4-Dioxane [1] | Solvent residue: Ethylene glycol dimethyl ether [1] | Crystal form after slurrying [2] | Solvent residue, comparison of the crystal forms [1] | Solvent residue: Ethyl acetate [1] | Solvent residue: Methyl tert-butyl ether [1] | Solvent residue: Isopropyl ether [1] | Structure (SMILES) | Dissolution behaviour of the raw material [3]
6.3% | Not detected | conversion to the crystal form II | – | – | – | – | C[C@@H](OC[C@@]1(c2ccccc2)CC[C@]2(CCC(=O)N2)CN1C(=O)OCOP(=O)(O)O)c1cc(C(F)(F)F)cc(C(F)(F)F)c1 [Crystal form III] | –
– | Not detected | – | lowest solvent residue | 0.0105% | 0.1867% | – | C[C@@H](OC[C@@]1(c2ccccc2)CC[C@]2(CCC(=O)N2)CN1C(=O)OCOP(=O)(O)O)c1cc(C(F)(F)F)cc(C(F)(F)F)c1 [Crystal form II] | dissolved faster, no agglomeration occurred
– | Not detected | conversion to the crystal form II | – | 0.0293% | – | 12.0% | C[C@@H](OC[C@@]1(c2ccccc2)CC[C@]2(CCC(=O)N2)CN1C(=O)OCOP(=O)(O)O)c1cc(C(F)(F)F)cc(C(F)(F)F)c1 [Crystal form I] | –
– | – | – | – | – | – | – | C[C@@H](OC[C@@]1(c2ccccc2)CC[C@]2(CCC(=O)N2)CN1C(=O)OCOP(=O)(O)O)c1cc(C(F)(F)F)cc(C(F)(F)F)c1 [amorphous form] | agglomerated in a large amount in the solution, resulting in the inability to completely dissolve the raw material
